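Cells were grown in 96-well plates and exposed to each compound for 48 hours at five concentrations; endpoints were interpolated linearly between bracketing concentrations, or set to the highest concentration if not reached. At the GI50, growth is halved.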 Calls of active or inactive are those of the source. Rule as the data show it: active = GI50 up to about 1.1 µM and inactive = higher.
Legend:
Assay in all cases: growth of human tumour cells (NCI), 48 h
[1] = system: LOX IMVI
[2] = system: U-251
[3] = system: SNB-75
[4] = system: UACC-62
[5] = system: HOP-92
[6] = system: OVCAR-4
[7] = system: MCF7
[8] = system: EKVX
[9] = system: COLO 205
[10] = system: CCRF-CEM
[11] = system: UACC-257
[12] = system: 786-0
[13] = system: MOLT-4
[14] = system: HCT-15
[15] = system: KM12
[16] = system: IGROV-1
[17] = system: MDA-MB-231
[18] = system: Hs-578T
[19] = system: HCT-116
[20] = system: NCI-H460
[21] = system: HT-29
[22] = system: K562
[23] = system: SF-268
[24] = system: NCI-H226
[25] = system: SNB-19
[26] = system: NCI/ADR-RES
[27] = system: T47D
[28] = system: M14
[29] = system: HOP-62
[30] = system: NCI-H522
[31] = system: OVCAR-8
[32] = system: SK-MEL-28
[33] = system: SF-295
[34] = system: HCC 2998
[35] = system: DU-145
[36] = system: A549
[37] = system: SK-MEL-5
[38] = system: SW-620
[39] = system: SF-539
[40] = system: MDA-N
[41] = system: NCI-H23
[42] = system: BT-549
[43] = system: TK-10
[44] = system: RXF 393
[45] = system: OVCAR-5
[46] = system: ACHN
[47] = system: CAKI-1
[48] = system: A498
[49] = system: OVCAR-3
[50] = system: SK-OV-3
[51] = system: SN12C
[52] = system: SK-MEL-2
[53] = system: HL-60
[54] = system: MDA-MB-435
[55] = system: PC-3
[56] = system: Malme-3M
[57] = system: UO-31
[58] = system: SR
[59] = system: RPMI-8226

## C=C(C)C1CC=C(C)C2(C1)OCC(C)(C)C(C)O2 (configuration not stated)
[1]
  GI50: 17.5 µM (inactive)
[2]
  GI50: 16.7 µM (inactive)
[3]
  GI50: 22 µM (inactive)
[4]
  GI50: 15.8 µM (inactive)
[5]
  GI50: 11.2 µM (inactive)
[6]
  GI50: 17.1 µM (inactive)
[7]
  GI50: 17.1 µM (inactive)
[8]
  GI50: 24.7 µM (inactive)
[9]
  GI50: 18.1 µM (inactive)
[10]
  GI50: 24.7 µM (inactive)
[11]
  GI50: 21.1 µM (inactive)
[12]
  GI50: 17.6 µM (inactive)
[13]
  GI50: 20.1 µM (inactive)
[14]
  GI50: 16.4 µM
[15]
  GI50: 16.9 µM (inactive)
[16]
  GI50: 22.9 µM (inactive)
[17]
  GI50: 21.7 µM (inactive)
[18]
  GI50: 27.9 µM (inactive)
[19]
  GI50: 16.3 µM (inactive)
[20]
  GI50: 26.1 µM (inactive)
[21]
  GI50: 15.5 µM (inactive)
[22]
  GI50: 18.5 µM (inactive)
[23]
  GI50: 19.8 µM (inactive)
[24]
  GI50: 18.3 µM (inactive)
[25]
  GI50: 18.3 µM (inactive)
[26]
  GI50: 17.9 µM (inactive)
[27]
  GI50: 18.4 µM (inactive)
[28]
  GI50: 22.2 µM (inactive)
[29]
  GI50: 16.6 µM (inactive)
[30]
  GI50: 17.7 µM (inactive)
[31]
  GI50: 16.5 µM (inactive)
[32]
  GI50: 24 µM (inactive)
[33]
  GI50: 19.5 µM (inactive)
[34]
  GI50: 28.3 µM (inactive)
[35]
  GI50: 31 µM (inactive)
[36]
  GI50: 17.3 µM (inactive)
[37]
  GI50: 15.2 µM (inactive)
[38]
  GI50: 19.1 µM (inactive)
[39]
  GI50: 22.2 µM (inactive)
[40]
  GI50: 21 µM (inactive)
[41]
  GI50: 20.7 µM (inactive)
[42]
  GI50: 17.3 µM (inactive)
[43]
  GI50: 47.4 µM (inactive)
[44]
  GI50: 13.7 µM (inactive)
[45]
  GI50: 19.3 µM (inactive)
[46]
  GI50: 18.3 µM (inactive)
[47]
  GI50: 16.3 µM (inactive)
[48]
  GI50: 14.6 µM (inactive)
[49]
  GI50: 16.1 µM (inactive)
[50]
  GI50: 23.4 µM (inactive)
[51]
  GI50: 18.2 µM (inactive)
[52]
  GI50: 17.8 µM (inactive)
[53]
  GI50: 15 µM (inactive)
[54]
  GI50: 21.3 µM (inactive)
[55]
  GI50: 30.1 µM (inactive)
[56]
  GI50: 14.5 µM (inactive)
[57]
  GI50: 20.3 µM (inactive)
[58]
  GI50: 18.2 µM (inactive)
[59]
  GI50: 17.9 µM (inactive)

## Cc1ccc2c(c1)C(C1Cc3cccc(C)c3C1=O)OC2=O (configuration not stated)
[1]
  GI50: 34.2 µM (inactive)
[2]
  GI50: > 100 µM (inactive)
[3]
  GI50: 81.5 µM (inactive)
[4]
  GI50: 94.6 µM (inactive)
[5]
  GI50: > 100 µM (inactive)
[6]
  GI50: 75.3 µM (inactive)
[7]
  GI50: 81.1 µM (inactive)
[8]
  GI50: 67.6 µM (inactive)
[9]
  GI50: > 100 µM (inactive)
[10]
  GI50: > 100 µM (inactive)
[11]
  GI50: > 100 µM (inactive)
[12]
  GI50: > 100 µM (inactive)
[13]
  GI50: 96.4 µM (inactive)
[14]
  GI50: > 100 µM
[15]
  GI50: 96.2 µM (inactive)
[16]
  GI50: > 100 µM (inactive)
[17]
  GI50: > 100 µM (inactive)
[18]
  GI50: > 100 µM (inactive)
[19]
  GI50: > 100 µM (inactive)
[20]
  GI50: > 100 µM (inactive)
[21]
  GI50: > 100 µM (inactive)
[22]
  GI50: 84.3 µM (inactive)
[23]
  GI50: > 100 µM (inactive)
[24]
  GI50: 72.9 µM (inactive)
[25]
  GI50: > 100 µM (inactive)
[26]
  GI50: > 100 µM (inactive)
[27]
  GI50: > 100 µM (inactive)
[28]
  GI50: > 100 µM (inactive)
[29]
  GI50: > 100 µM (inactive)
[30]
  GI50: > 100 µM (inactive)
[31]
  GI50: > 100 µM (inactive)
[32]
  GI50: > 100 µM (inactive)
[33]
  GI50: > 100 µM (inactive)
[34]
  GI50: > 100 µM (inactive)
[35]
  GI50: > 100 µM (inactive)
[36]
  GI50: > 100 µM (inactive)
[37]
  GI50: 56.4 µM (inactive)
[38]
  GI50: > 100 µM (inactive)
[39]
  GI50: > 100 µM (inactive)
[40]
  GI50: > 100 µM (inactive)
[41]
  GI50: > 100 µM (inactive)
[42]
  GI50: > 100 µM (inactive)
[43]
  GI50: > 100 µM (inactive)
[44]
  GI50: 22.4 µM (inactive)
[45]
  GI50: > 100 µM (inactive)
[46]
  GI50: > 100 µM (inactive)
[47]
  GI50: > 100 µM (inactive)
[48]
  GI50: 46.2 µM (inactive)
[49]
  GI50: > 100 µM (inactive)
[50]
  GI50: > 100 µM (inactive)
[51]
  GI50: > 100 µM (inactive)
[52]
  GI50: > 100 µM (inactive)
[53]
  GI50: 35.8 µM (inactive)
[54]
  GI50: 47.5 µM (inactive)
[55]
  GI50: > 100 µM (inactive)
[56]
  GI50: > 100 µM (inactive)
[57]
  GI50: > 100 µM (inactive)
[58]
  GI50: 60.8 µM (inactive)
[59]
  GI50: 30.3 µM (inactive)

## O=C(N/N=C/c1ccc([N+](=O)[O-])cc1)Nc1ccc(C(=O)O)cc1
[1]
  GI50: 31.3 µM (inactive)
[2]
  GI50: 28.2 µM (inactive)
[3]
  GI50: 46.3 µM (inactive)
[4]
  GI50: 26.4 µM (inactive)
[5]
  GI50: 16.9 µM (inactive)
[6]
  GI50: 21.2 µM (inactive)
[7]
  GI50: 27.4 µM (inactive)
[8]
  GI50: 23.1 µM (inactive)
[9]
  GI50: 23.1 µM (inactive)
[10]
  GI50: 30.6 µM (inactive)
[11]
  GI50: 28.4 µM (inactive)
[12]
  GI50: 39.1 µM (inactive)
[13]
  GI50: 22.9 µM (inactive)
[14]
  GI50: 25.5 µM
[15]
  GI50: 27.7 µM (inactive)
[16]
  GI50: 33.1 µM (inactive)
[17]
  GI50: 28.6 µM (inactive)
[18]
  GI50: 45.4 µM (inactive)
[19]
  GI50: 22.3 µM (inactive)
[20]
  GI50: 26.5 µM (inactive)
[21]
  GI50: 23.8 µM (inactive)
[22]
  GI50: 13.3 µM (inactive)
[23]
  GI50: 44 µM (inactive)
[24]
  GI50: 22.2 µM (inactive)
[25]
  GI50: 38.6 µM (inactive)
[26]
  GI50: 27 µM (inactive)
[27]
  GI50: 11 µM (inactive)
[28]
  GI50: 37.4 µM (inactive)
[29]
  GI50: 21.6 µM (inactive)
[30]
  GI50: 7.85 µM (inactive)
[31]
  GI50: 28.6 µM (inactive)
[32]
  GI50: 41.7 µM (inactive)
[33]
  GI50: 17.4 µM (inactive)
[34]
  GI50: 20.2 µM (inactive)
[35]
  GI50: 29.9 µM (inactive)
[36]
  GI50: 35.3 µM (inactive)
[37]
  GI50: 16.3 µM (inactive)
[38]
  GI50: 40.9 µM (inactive)
[39]
  GI50: 49.3 µM (inactive)
[40]
  GI50: 30.5 µM (inactive)
[41]
  GI50: 23.2 µM (inactive)
[42]
  GI50: 35.2 µM (inactive)
[43]
  GI50: 34.4 µM (inactive)
[44]
  GI50: 26.1 µM (inactive)
[45]
  GI50: 40.6 µM (inactive)
[46]
  GI50: 26.7 µM (inactive)
[47]
  GI50: 28.2 µM (inactive)
[48]
  GI50: 20.2 µM (inactive)
[49]
  GI50: 4.54 µM (inactive)
[50]
  GI50: 21.3 µM (inactive)
[51]
  GI50: 29.9 µM (inactive)
[52]
  GI50: 25 µM (inactive)
[53]
  GI50: 37.2 µM (inactive)
[54]
  GI50: 29 µM (inactive)
[55]
  GI50: 32.1 µM (inactive)
[56]
  GI50: 53 µM (inactive)
[57]
  GI50: 22.1 µM (inactive)
[58]
  GI50: 43.5 µM (inactive)
[59]
  GI50: 18.7 µM (inactive)

Reference: ChEMBL document CHEMBL1201862, “PubChem BioAssay data set” (2004)
